Results taken from ChEMBL document CHEMBL3507680, “University of Dundee, Gates Library screen for HepG2 cell viability”.

Assay: Human HepG2 cell viability assay in 384 well format
Type: toxicity, cell-based
Design: dose 125 nL, time 70.5 hour; cytotoxicity at 70.5 h: concentration not given beside the values
Conditions: HepG2 cells, read-out: Inhibition

Row | SMILES | cytotoxicity at 70.5 h [%]
1 | O=C1CN(C(=O)c2cc3c(F)cc(Br)cc3[nH]2)CCN1 | -4.59
2 | COc1cccc(CCC(=O)Nc2c(C)nn(C)c2C)c1OC | -10.8
3 | CC1(C)COCCN1C(=O)Cc1cc(Cl)c2c(c1)OCCO2 | 0.881
4 | Cc1nc(CNCC2CNc3ccnn3C2)cs1 (stereo unspecified) | -7.55
5 | COc1ccc2cc(C(=O)NCCNc3ccc(C)nn3)[nH]c2c1 | -5.63
6 | Cc1noc(C)c1CNCC1CNc2ccnn2C1 (stereo unspecified) | -7.43
7 | CCc1nnc2n1CCN(C(=O)C(C)Oc1cccc(C#N)c1)C2 (stereo unspecified) | 12.9
8 | Cc1cccc(-c2noc(Cn3nc(C(N)=O)ccc3=O)n2)c1 | -4.08
9 | CCc1ccc(-c2noc(Cn3nc(C(N)=O)ccc3=O)n2)cc1 | -6.4
10 | Cc1nn(C)c(C)c1C1CCCN1CC(=O)N(C)c1nccs1 (stereo unspecified) | -3.66
11 | CN(CCOc1ccc(C#N)cc1)CC1CCS(=O)(=O)C1 (stereo unspecified) | -9.8
12 | CC(=O)NCCCNC(=O)N1CCN(c2cc(F)ccc2F)CC1 | -6.3
13 | Cc1cc(C2CCCN(Cc3nnc(Cc4ccccc4)o3)C2)n[nH]1 (stereo unspecified) | -9.79
14 | C[S+]([O-])CCNC(=O)N1CCN(c2cc(F)ccc2F)CC1 (stereo unspecified) | 13
15 | Cc1cc(COC(=O)[C@@H]2Cc3ccccc3CN2S(C)(=O)=O)no1 | 1.54
16 | Cc1ccc(CNc2cc3c(cc2Cl)NC(=O)CO3)cc1C | -5.39
17 | Cc1ccc(CNCc2nccn2C)c(OC(C)(C)C)c1 | -7.39
18 | Cc1ccc(CNCc2nccn2C)c(OCC2CC2)c1 | 7.03
19 | CC1COCCN1C(=O)Cc1cc(Cl)c2c(c1)OCCCO2 (stereo unspecified) | -14.3
20 | CCSc1cccc(NCc2cccnc2)c1 | -16.6
21 | COc1c(C2CCCN2CC(=O)N(C)Cc2ccco2)c(C)nn1C (stereo unspecified) | -5.02
22 | COc1ccccc1C(=O)NCCC(=O)Nc1c(C)nn(C)c1C | -12.6
23 | COCCCNC(=O)NCc1nc(C)c(C)o1 | -7.01
24 | CN(Cc1ccccc1)c1ccc(C(F)(F)F)cn1 | -3.92

Row | SMILES | cytotoxicity at 70.5 h [%]
25 | CSc1ccccc1NC(=O)CCN1CCC(C(=O)N(C)C)CC1 | 2.74
26 | O=C1COc2cc(S(=O)(=O)NCCC3=CCCCC3)c(Br)cc2N1 | -8
27 | CN(Cc1ccc(C(N)=O)cc1)c1ccc(C(F)(F)F)cn1 | -2.07
28 | Cn1cc(C(=O)N2CCCC2c2ccc3c(c2)OCCO3)ccc1=O (stereo unspecified) | -4.05
29 | CC1CCc2sc(C(=O)Nc3cnn(C)c3)cc2C1 (stereo unspecified) | -2.28
30 | Cn1ccnc1CCNS(=O)(=O)c1cccc(Br)c1 | -2.62
31 | CC(C)(C(=O)N1CCC(C(N)=O)C1)c1ccccc1F (stereo unspecified) | -2.99
32 | CN(C)CCN(Cc1ccccc1)C(=O)CN1CCCNC1=O | -0.477
33 | CCN(CC)C(=O)CNC(=O)c1c[nH]c2ccc(OC)cc12 | 3.81
34 | Cc1cc(C)n(C2CN(Cc3ccc(C(=O)N4CCCC4)cc3)C2)n1 | -1.2
35 | CNC(=O)c1cccc(NCCOc2ccc(CC#N)cc2)c1C | -1.82
36 | CC(C)(C(=O)N1CCC(CS(N)(=O)=O)CC1)c1ccccc1F | 1.82
37 | Cn1nc2c(cc1=O)CN(c1nc3ccccc3s1)CC2 | 4.78
38 | COc1c(NS(=O)(=O)c2cc(C)ccc2C)c(C)nn1C | -63.5
39 | O=C(c1cc(-n2cccn2)ccn1)N1CCOc2ncccc21 | -1.03
40 | O=C(c1cc(-n2cccn2)ccn1)N1CCOc2ccncc21 | -0.581
41 | O=C(c1cc(-n2cccn2)ccn1)N1CCOc2ccc(F)cc21 | 0.748
42 | Cn1cc(CNC(=O)c2cc3c(s2)CCCCC3)cn1 | -3.43
43 | NC(=O)C1CN(C(=O)C2(c3ccc(F)cc3F)CCCC2)CCO1 (stereo unspecified) | -1.48
44 | CC(=O)N(C)Cc1ccccc1NCc1c(C)cccc1C | -3.43
45 | c1ccc2nc(N3CCCC3)c(NCc3nnc4n3CCC4)nc2c1 | -9.07
46 | CNC(=O)c1cccnc1NCCOc1ccc(CC#N)cc1 | -0.53
47 | Cn1cc(CNC2CCc3ncnn3C2)c(-c2cccnc2)n1 (stereo unspecified) | -5.95
48 | CCc1ccc(CNC2(c3ccc(F)cc3)CCOCC2)o1 | -5.73

Row | SMILES | cytotoxicity at 70.5 h [%]
49 | CCCc1n[nH]c(C2CN(CC(=O)N(C)Cc3ccco3)CCO2)n1 (stereo unspecified) | -6.63
50 | CC(C)c1n[nH]c(C2CN(CC(=O)N(C)Cc3ccco3)CCO2)n1 (stereo unspecified) | -3.93
51 | Cn1cc(CNC2CCc3ncnn3C2)c(-c2ccncc2)n1 (stereo unspecified) | -1.76
52 | Cc1noc(C)c1CN(C)Cc1csc(-c2ccc(C(C)C)cc2)n1 | 19.9
53 | N#Cc1ncn(CCS(=O)(=O)c2ccc(Cl)cc2)n1 | 2.53
54 | Cc1cc(NC(=O)NCc2ccc(C)s2)no1 | -8.73
55 | CC(C)Oc1ccc(C(=O)NCc2ccnc(N3CCCC3)c2)cn1 | -10.1
56 | CCn1cnnc1CNC(=O)N(C)Cc1ccc(Cl)cc1Cl | 3.74
57 | O=C(NCCc1cccc(Cl)c1)C1CCOCC1 | 0.784
58 | COC(=O)N1CCCC(C(=O)Nc2ccccc2CN2CCCC2)C1 (stereo unspecified) | -0.192
59 | CCN1CCN(C2CCN(C(C(N)=O)c3ccccc3)CC2)C1=O (stereo unspecified) | 1.23
60 | CN(C)C1CCN(C(=O)C2SCCc3ccccc32)CC1 (stereo unspecified) | -6.27
61 | CS(=O)(=O)CCCNC1CCCN(Cc2noc(C3CC3)n2)C1 (stereo unspecified) | -7.07
62 | CC(C)NC(=O)CS(=O)(=O)Cc1coc(-c2ccc(F)cc2)n1 | -17.8
63 | CS(=O)(=O)NCCC1CCCCN1C(=O)NCc1ccccn1 (stereo unspecified) | -18.6
64 | CCN1CCN(C(=O)NCc2ccccc2Cn2cncn2)CC1 | 19.4
65 | CS(=O)(=O)CCCNC(=O)C1(c2cccc(Cl)c2)CC1 | -12.8
66 | CC(=O)N1CCN(C(=O)CN(C)c2ccc(Cl)cn2)CC1 | -10.3
67 | Cc1ncc(CN2CCC(c3nc4cc(Cl)ccc4o3)CC2)s1 | 22.3
68 | CN1CCCN(C(=O)NCc2ccccc2Cn2cncn2)CC1 | -2.94
69 | CC(=O)N1CCN(C(=O)NCc2ccccc2Cn2cncn2)CC1 | -14.9
70 | COc1cc(C(=O)NS(=O)(=O)c2cncc(Br)c2)ccc1C | -19
71 | CC(C)C(=O)N1CCCC1C(=O)Nc1cc(C(F)(F)F)ccc1F (stereo unspecified) | -17.3
72 | CCS(=O)(=O)CCNC(=O)C1(c2cccc(Cl)c2)CC1 | 15.5

Row | SMILES | cytotoxicity at 70.5 h [%]
73 | COC(=O)[C@H](C)NC(=O)COc1nn(C)c2nc(C)cc(C)c12 | -16.3
74 | Cc1cc(C)c2c(OCC(=O)N(C)CC(=O)NC(C)C)nn(C)c2n1 | -19.9
75 | Cc1cc(NC(=O)CN2CCc3c(nc(C(C)C)n3C)C2)n(C)n1 | -16.7
76 | Cc1nnc(NC(=O)CN2CCc3c(nc(C(C)C)n3C)C2)s1 | -8.19
77 | CN(CC(=O)N1CCN(CC(C)(C)O)CC1)c1ccc(Cl)cn1 | -17.3
78 | CCC(C)(CC)NC(=O)COc1nn(C)c2nc(C)cc(C)c12 | 14.2
79 | Cc1n[nH]c(C)c1NC(=O)CN1CCc2c(nc(C(C)C)n2C)C1 | -16.4
80 | COCCOCC(C)NC(=O)COc1nn(C)c2nc(C)cc(C)c12 (stereo unspecified) | -11
81 | CC(C)C(=O)N1CCCC1C(=O)Nc1ccc(F)c(F)c1 (stereo unspecified) | -14.3
82 | COc1ccc(C(=O)NS(=O)(=O)c2cncc(Br)c2)cc1 | -16.9
83 | CNC(=O)Cc1coc(-c2ccc(F)cc2)n1 | -16.9
84 | COc1cc(C(=O)NS(=O)(=O)c2cncc(Br)c2)cc(OC)c1C | -8.02
85 | Cc1ccc(F)c(S(=O)(=O)Nc2cn(C)cc(Br)c2=O)c1 | -1.44
86 | Cn1cc(Br)c(=O)c(NS(=O)(=O)c2ccc3c(c2)CCC3)c1 | 2.07
87 | CN(CCc1cccs1)C(=O)Nc1cnn(CC2CCCO2)c1 (stereo unspecified) | -16
88 | CCN(CC)C(=O)CNC(=O)N1CCC(c2ccc(OC)cc2)C1 (stereo unspecified) | 12.9
89 | C1CCC(NC2CCCN(Cc3noc(C4CC4)n3)C2)C1 (stereo unspecified) | -15.1
90 | COc1cccc(C2(CNC(C)c3nnc(C)o3)CCCC2)c1 (stereo unspecified) | -13.9
91 | O=C(c1ccn(-c2cccc(F)c2)n1)N1CCN(CCO)CC1 | -5.78
92 | CCc1noc(CNc2c(F)cccc2-n2cccn2)n1 | -8.2
93 | CC(C)CNC(=O)Nc1cccc(CN2CCOC2=O)c1 | -6.71
94 | Cc1cccc(NC(=O)C2CCCN2C(=O)c2ccco2)c1C (stereo unspecified) | 11.4
95 | O=C1CN(Cc2nnc(-c3ccc(Cl)cc3)o2)CCN1 | -9.87
96 | CC(Cn1cccn1)NC(=O)Nc1ccc(N2CCCCC2)nc1 (stereo unspecified) | -7.26

Row | SMILES | cytotoxicity at 70.5 h [%]
97 | Cc1ccc(NC(=O)NC(C)Cn2cccn2)cc1 (stereo unspecified) | -11.9
98 | CC(NC(=O)N(C)Cc1ccc2c(c1)OCCO2)c1nncn1C (stereo unspecified) | -0.921
99 | Cc1cc(NC(=O)NCCc2ccccc2)n(C)n1 | -7.09
100 | CC(C)(O)CN1CCN(C(=O)c2ccn(-c3cccc(F)c3)n2)CC1 | -4.39
101 | CCC(O)CN1CCN(C(=O)c2ccn(-c3cccc(F)c3)n2)CC1 (stereo unspecified) | -5.3
102 | COC(=O)c1ccc(NC(=O)[C@@H]2CCCN2C(=O)c2ccco2)s1 | -7.02
103 | Cc1cc(NC(=O)CN2CCc3nn(C)c(=O)cc3C2)no1 | -9.67
104 | CSC(C)(C)CNC(=O)Nc1cccc(-c2nccn2C)c1 | -3.46
105 | O=C(CSc1ccc2c(c1)OCCO2)NS(=O)(=O)c1ccccc1Cl | -4.64
106 | O=C(CSc1ccc2c(c1)OCCO2)NS(=O)(=O)c1ccccc1Br | -6.54
107 | COc1ccc(-c2nc(CN3CCCS3(=O)=O)co2)cc1 | 14.5
108 | CN1CCN(c2nc(-c3cnn(C)c3)cs2)CC1 | -6.42
109 | CC(C)(C)c1nnc(CNc2c(F)cccc2-n2cccn2)o1 | -8.76
110 | O=S1(=O)CCCN1Cc1coc(-c2ccc(C(F)(F)F)cc2)n1 | 11
111 | CCC(CC)C(O)CNC(=O)Nc1cccc(-c2nccn2C)c1 (stereo unspecified) | -3.63
112 | CC(=O)NCCc1ccc(S(=O)(=O)N(C)C(C)CC(C)C)s1 (stereo unspecified) | -7.26
113 | OCCN1CCN(Cc2cc3c(cc2Br)OCCO3)CC1 | 20.1
114 | CCc1n[nH]c(C2CN(C(=O)Cc3ccc(C)nc3)CCO2)n1 (stereo unspecified) | 9.01
115 | CC(C#N)CSc1ccccc1NCC(=O)NC(C1CC1)C1CC1 (stereo unspecified) | 8.68
116 | CCNc1nnc(SCC(=O)N2CCN(Cc3ccc(Cl)s3)CC2)s1 | -0.322
